# Assay results taken from PubChem BioAssay (NCI).
#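 Protocol summary: plate cells (96-well), add compound at 5 concentrations, incubate 48 h, interpolate endpoints linearly. Abbreviation: GI50, concentration required for 50% inhibition of growth. TGI: total growth inhibition.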
# Tests used:
# Test in all cases: DTP human tumour cell line panel, 48 h
# [1] = tested on: PC-3 prostate
# [2] = tested on: OVCAR-4 ovarian
# [3] = tested on: CAKI-1 renal
# [4] = tested on: 786-0 renal
# [5] = tested on: NCI-H226 lung
# [6] = tested on: NCI/ADR-RES ovarian
# [7] = tested on: OVCAR-3 ovarian
# [8] = tested on: SN12C renal
# [9] = tested on: SK-MEL-2 melanoma
# [10] = tested on: UO-31 renal
# [11] = tested on: NCI-H23 lung
# [12] = tested on: HOP-62 NSCLC
# [13] = tested on: MDA-MB-435
# [14] = tested on: MALME-3M melanoma
# [15] = tested on: A498 renal
# [16] = tested on: NCI-H522 lung
# [17] = tested on: HOP-92 NSCLC
# [18] = tested on: SK-OV-3 ovarian
# [19] = tested on: SF-268 CNS
# [20] = tested on: SW-620 colon
# [21] = tested on: BT-549 breast
# [22] = tested on: HT29 colon
# [23] = tested on: HS 578T breast
# [24] = tested on: RXF 393 renal
# [25] = tested on: CCRF-CEM leukemia
# [26] = tested on: EKVX NSCLC
# [27] = tested on: SF-295 CNS
# [28] = tested on: RPMI-8226 leukemia
# [29] = tested on: UACC-257 melanoma
# [30] = tested on: OVCAR-5 ovarian
# [31] = tested on: LOX IMVI melanoma
# [32] = tested on: T-47D breast
# [33] = tested on: A549 NSCLC
# [34] = tested on: OVCAR-8 ovarian
# [35] = tested on: KM12 colon
# [36] = tested on: HCC-2998 colon
# [37] = tested on: SF-539 CNS
# [38] = tested on: MDA-MB-231 breast
# [39] = tested on: COLO 205 colon
# [40] = tested on: TK-10 renal
# [41] = tested on: NCI-H460 lung
# [42] = tested on: U251 CNS
# [43] = tested on: HCT-116 colon
# [44] = tested on: IGROV1 ovarian
# [45] = tested on: M14 melanoma
# [46] = tested on: ACHN renal
# [47] = tested on: HL-60(TB) leukemia
# [48] = tested on: SK-MEL-28 melanoma
# [49] = tested on: UACC-62 melanoma
# [50] = tested on: DU-145 prostate
# [51] = tested on: K-562 leukemia
# [52] = tested on: HCT-15 colon
# [53] = tested on: SNB-19 CNS
# [54] = tested on: MCF7 breast
# [55] = tested on: SNB-75 CNS
# [56] = tested on: SK-MEL-5 melanoma
structure (smiles),measurement,setting,value
O=c1[nH]cnc2c(C3OC(CO)C(O)C3O)scc12 (configuration not stated),GI50,[1],37.9 µM
same,TGI,[1],> 100 µM
same,GI50,[2],> 100 µM
same,TGI,[2],> 100 µM
same,GI50,[3],77.9 µM
same,TGI,[3],> 100 µM
same,GI50,[4],> 100 µM
same,TGI,[4],> 100 µM
same,GI50,[5],> 100 µM
same,TGI,[5],> 100 µM
same,GI50,[6],44.5 µM
same,TGI,[6],> 100 µM
same,GI50,[7],> 100 µM
same,TGI,[7],> 100 µM
same,GI50,[8],> 100 µM
same,TGI,[8],> 100 µM
same,GI50,[9],44.8 µM
same,TGI,[9],> 100 µM
same,GI50,[10],51.4 µM
same,TGI,[10],> 100 µM
same,GI50,[11],> 100 µM
same,TGI,[11],> 100 µM
same,GI50,[12],46.9 µM
same,TGI,[12],> 100 µM
same,GI50,[13],> 100 µM
same,TGI,[13],> 100 µM
same,GI50,[14],13.8 µM
same,TGI,[14],> 100 µM
same,GI50,[15],> 100 µM
same,TGI,[15],> 100 µM
same,GI50,[16],> 100 µM
same,TGI,[16],> 100 µM
same,GI50,[17],5.03 µM
same,TGI,[17],> 100 µM
same,GI50,[18],> 100 µM
same,TGI,[18],> 100 µM
same,GI50,[19],> 100 µM
same,TGI,[19],> 100 µM
same,GI50,[20],99.9 µM
same,TGI,[20],> 100 µM
same,GI50,[21],> 100 µM
same,TGI,[21],> 100 µM
same,GI50,[22],> 100 µM
same,TGI,[22],> 100 µM
same,GI50,[23],> 100 µM
same,TGI,[23],> 100 µM
same,GI50,[24],> 100 µM
same,TGI,[24],> 100 µM
same,GI50,[25],0.271 µM
same,TGI,[25],1.16 µM
same,GI50,[26],> 100 µM
same,TGI,[26],> 100 µM
same,GI50,[27],> 100 µM
same,TGI,[27],> 100 µM
same,GI50,[28],26.9 µM
same,TGI,[28],> 100 µM
same,GI50,[29],> 100 µM
same,TGI,[29],> 100 µM
same,GI50,[30],> 100 µM
same,TGI,[30],> 100 µM
same,GI50,[31],43.9 µM
same,TGI,[31],> 100 µM
same,GI50,[32],> 100 µM
same,TGI,[32],> 100 µM
same,GI50,[33],> 100 µM
same,TGI,[33],> 100 µM
same,GI50,[34],54.8 µM
same,TGI,[34],> 100 µM
same,GI50,[35],> 100 µM
same,TGI,[35],> 100 µM
same,GI50,[36],32.3 µM
same,TGI,[36],> 100 µM
same,GI50,[37],> 100 µM
same,TGI,[37],> 100 µM
same,GI50,[38],37.5 µM
same,TGI,[38],> 100 µM
same,GI50,[39],> 100 µM
same,TGI,[39],> 100 µM
same,GI50,[40],11.6 µM
same,TGI,[40],> 100 µM
same,GI50,[41],74 µM
same,TGI,[41],> 100 µM
same,GI50,[42],> 100 µM
same,TGI,[42],> 100 µM
same,GI50,[43],> 100 µM
same,TGI,[43],> 100 µM
same,GI50,[44],73.5 µM
same,TGI,[44],> 100 µM
same,GI50,[45],56.5 µM
same,TGI,[45],> 100 µM
same,GI50,[46],49.1 µM
same,TGI,[46],> 100 µM
same,GI50,[47],19.6 µM
same,TGI,[47],> 100 µM
same,GI50,[48],> 100 µM
same,TGI,[48],> 100 µM
same,GI50,[49],> 100 µM
same,TGI,[49],> 100 µM
same,GI50,[50],5.47 µM
same,TGI,[50],> 100 µM
same,GI50,[51],31.5 µM
same,TGI,[51],> 100 µM
same,GI50,[52],60 µM
same,TGI,[52],> 100 µM
same,GI50,[53],> 100 µM
same,TGI,[53],> 100 µM
same,GI50,[54],50.1 µM
same,TGI,[54],> 100 µM
same,GI50,[55],> 100 µM
same,TGI,[55],> 100 µM
same,GI50,[56],> 100 µM
same,TGI,[56],> 100 µM
